# Tested on: STZ-induced hyperglycemic rats
# Test: Anti-hyperglycemic effect in STZ-induced hyperglycemic rats (serum blood glucose level)
# Format: in vivo, Sprague-Dawley (SD) rats
# Procedure: For the purpose of the present invention, the dietary supplement prepared in accordance with Example 1 is named Composition 1. Composition 1 is an herbal supplement used for control of blood glucose level. The purpose of this study was to assess the anti-hyperglycemic effect of Composition 1 tablet in STZ-induced hyperglycemic rats.
# Sprague-Dawley (SD) rats weighing 230˜270 g were used to establish the hyperglycemic rat model. Animals were fasted for 18 hours before receiving a single intraperitoneal injection of 2% STZ at a dose of 40 mg/kg BW (2.0 ml/kg). Six SD rats were selected as the Blank Control Group and injected intraperitoneally with citric acid buffer at a dose of 2.0 ml/kg BW. All rats had free access to food and water after the injection. Blood samples were collected from rats' posterior orbits veins at 72 hours after the injection for determination of the blood glucose level. Successful establishment of hyperglycemic rat model was defined as a non-fasting venous blood glucose level≧13.8 mmol/L. […]
# The clinical dose of Metformin for human is 1˜1.5 g/day, which is about 0.025 g/kg body weight/day for an adult. The administration dose of Metformin for rat was calculated to be 0.25 g/kg body weight/day, 10 times of human clinical dose. […]
smiles,measurement,setting,value
CN(C)C(=N)N=C(N)N [Metformin],blood glucose levels compared to the Model Control Group,"Metformin Control Group 0.25 g/kg/day, 3rd and 4th weeks after the beginning of administration, p<0.05",lower
same,decrease of end-point blood glucose level compared to level prior to the treatment,"Metformin Control Group, 0.25 g/kg/day i.g., after the 4-week treatment",59%
